“And” between values parts separate entries of the source, which are not always exact repeats. Equal entries are not always repeated. Records with an inconclusive call do not appear.
Tested on: BDF1 mice, colon carcinoma 38 sc, T/C %
Test: NCI In Vivo Anticancer Drug Screen. Data for tumor model Colon Carcinoma 38 (subcutaneous) in B6D2F1 (BDF1) mice
Conditions: endpoint: median tumor weight (est.), higher = larger tumour
Summary of the method: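 Transplantable tumor in mice; compound-treated vs vehicle-dosed controls. Measured survival or tumor size; value = T ÷ C.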

[1] = dose: 6.25 mg/kg/injection, schedule: Q07DX002 (ip), vehicle: saline
[2] = dose: 12.5 mg/kg/injection, schedule: Q07DX003 (ip), vehicle: saline
[3] = dose: 25.0 mg/kg/injection, schedule: Q07DX002 (ip), vehicle: saline
[4] = dose: 25.0 mg/kg/injection, schedule: Q07DX003 (ip), vehicle: saline
[5] = dose: 50.0 mg/kg/injection, schedule: Q07DX002 (ip), vehicle: saline
[6] = dose: 50.0 mg/kg/injection, schedule: Q07DX003 (ip), vehicle: saline
[7] = dose: 6.25 mg/kg/injection, schedule: Q07DX003 (ip), vehicle: saline
[8] = dose: 12.5 mg/kg/injection, schedule: Q07DX002 (ip), vehicle: saline
[9] = dose: 100.0 mg/kg/injection, schedule: Q07DX002 (ip), vehicle: saline

NC(=S)N/N=C/c1ccc(OC(=O)COc2ccc(Cl)cc2)cn1
T/C (dose: 12.5 mg/kg/injection, schedule: Q07DX002 (ip), vehicle: saline with Tween-80): 61 % of control
T/C (dose: 25.0 mg/kg/injection, schedule: Q07DX002 (ip), vehicle: saline with Tween-80): 77 % of control
T/C (dose: 50.0 mg/kg/injection, schedule: Q07DX002 (ip), vehicle: saline with Tween-80): 119 % of control
T/C (dose: 100.0 mg/kg/injection, schedule: Q07DX002 (ip), vehicle: saline with Tween-80): 89 % of control
T/C (dose: 200.0 mg/kg/injection, schedule: Q07DX002 (ip), vehicle: saline with Tween-80): 81 % of control
T/C (dose: 400.0 mg/kg/injection, schedule: Q07DX002 (ip), vehicle: saline with Tween-80): 70 % of control

c1cc2n(n1)CCN2
T/C [1]: 76 % of control
T/C [2]: 110 % of control
T/C (dose: 25.0 mg/kg/injection, schedule: Q01DX005 (ip), vehicle: saline): 86 % of control
T/C (dose: 25.0 mg/kg/injection, schedule: Q04DX003 (ip), vehicle: saline): 84 % of control
T/C [3]: 94 % of control
T/C [4]: 92 % of control
T/C (dose: 50.0 mg/kg/injection, schedule: Q01DX005 (ip), vehicle: saline): 36 % of control
T/C [5]: 166 % of control
T/C [6]: 74 % of control
T/C (dose: 100.0 mg/kg/injection, schedule: Q01DX005 (ip), vehicle: saline): 44 % of control
T/C (dose: 100.0 mg/kg/injection, schedule: Q04DX003 (ip), vehicle: saline): 42 % of control
T/C (dose: 100.0 mg/kg/injection, schedule: Q07DX003 (ip), vehicle: saline): 65 % of control
T/C (dose: 200.0 mg/kg/injection, schedule: Q01DX005 (ip), vehicle: saline): 47 % of control
T/C (dose: 200.0 mg/kg/injection, schedule: Q04DX003 (ip), vehicle: saline): 97 % of control
T/C (dose: 200.0 mg/kg/injection, schedule: Q07DX003 (ip), vehicle: saline): 66 % of control
T/C (dose: 400.0 mg/kg/injection, schedule: Q04DX003 (ip), vehicle: saline): 75 % of control
T/C (dose: 400.0 mg/kg/injection, schedule: Q07DX003 (ip), vehicle: saline): 56 % of control

CC(=O)c1cccc(NC2C(N)C(NC(=O)N(C)C)(C(C)O)C(C)(O)C2(O)COC(=O)c2c(C)cccc2O)c1 (centres undefined)
T/C (dose: 1.0 mg/kg/injection, schedule: Q07DX002 (ip), vehicle: suspension in saline): 110 % of control
T/C (dose: 2.0 mg/kg/injection, schedule: Q07DX002 (ip), vehicle: suspension in saline): 152 % of control
T/C (dose: 4.0 mg/kg/injection, schedule: Q07DX002 (ip), vehicle: suspension in saline): 104 % of control
T/C (dose: 8.0 mg/kg/injection, schedule: Q07DX002 (ip), vehicle: suspension in saline): 71 % of control

Cc1ncc(CNC(=O)N(CCCl)N=O)c(N)n1
T/C [7]: 82 % of control
T/C (dose: 12.5 mg/kg/injection, schedule: Q07DX002 (ip), vehicle: Klucel (hydroxypropylcellulose) (HPC)): 73 % of control
T/C [2]: 88 % of control
T/C (dose: 25.0 mg/kg/injection, schedule: Q07DX002 (ip), vehicle: Klucel (hydroxypropylcellulose) (HPC)): 32 % of control
T/C [4]: 31 % of control

CC1CN1P1(N2CC2C)=NP(N2CC2C)(N2CC2C)=NP(N2CC2C)(N2CC2C)=N1 (centres undefined)
T/C [1]: 103 % of control
T/C [8]: 104 % of control
T/C [3]: 111 % of control
T/C [5]: 155 % of control
T/C [9]: 70 % of control and 94 % of control

C1OC1CN1CCN(CC2CO2)CC1 (centres undefined)
T/C (dose: 3.12 mg/kg/injection, schedule: Q07DX002 (ip), vehicle: saline): 98 % of control
T/C (dose: 3.12 mg/kg/injection, schedule: Q07DX003 (ip), vehicle: saline): 1 % of control
T/C [7]: 23 % of control
T/C [8]: 77 % of control
T/C [2]: 9 % of control
T/C [3]: 100 % of control
T/C [4]: 20 % of control
T/C [5]: 77 % of control
T/C [6]: 4 % of control

CC1=C(C)C(=O)O[C@@H]([C@](C)(O)[C@]2(O)CC[C@@]3(O)[C@@H]4C[C@H]5O[C@]56CC=CC(=O)[C@]6(C)[C@H]4CC[C@]23C)C1
T/C [8]: 110 % of control
T/C [3]: 96 % of control
T/C (dose: 28.1 mg/kg/injection, schedule: Q07DX002 (ip), vehicle: saline): 162 % of control
T/C (dose: 56.2 mg/kg/injection, schedule: Q07DX002 (ip), vehicle: saline): 90 % of control
T/C [9]: 117 % of control
T/C (dose: 112.5 mg/kg/injection, schedule: Q07DX002 (ip), vehicle: saline): 160 % of control
T/C (dose: 200.0 mg/kg/injection, schedule: Q07DX002 (ip), vehicle: saline): 83 % of control
T/C (dose: 225.0 mg/kg/injection, schedule: Q07DX002 (ip), vehicle: saline): 70 % of control

Reference: PubChem BioAssay AID212 (DTP/NCI, 2004)
